Calls of active or inactive are those of the source.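 Rule for the calls: active = compounds lowering nitrite signal whose fitted AC50 is at most ten times their top tested dose; inconclusive = flat drop of 30 to 70 percent, or poor curve fit; inactive = the rest.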
Key:
[1] = inhibitors of cytokine-induced nitrite release, dose response, cell-based, Griess absorbance, INS-1E, dry powder, set 2 (AID 488868); settings: INS-1E cytokine-induced nitrite, Griess absorbance, 48 h
[2] = test system: INS-1E cytokine-induced nitrite, Griess absorbance, 48 h; test: as above

SMILES | activity change, negative = inhibition ([1]; at 26 µM (top of the series)) | other results
COc1ccc(S(=O)(=O)N(C)C[C@@H]2Oc3c(NS(C)(=O)=O)cccc3C(=O)N([C@@H](C)CO)C[C@H]2C)cc1 | -7.41% (inactive) | 
C[C@@H]1CN([C@@H](C)CO)C(=O)c2cccc(NC(=O)Nc3cccc4ccccc34)c2O[C@H]1CN(C)S(=O)(=O)c1ccc2c(c1)OCC2 | -32.4% (inactive) | 
COc1ccc(S(=O)(=O)Nc2cccc3c2O[C@@H](CN(C)S(=O)(=O)c2ccc(OC)cc2)[C@H](C)CN([C@@H](C)CO)C3=O)cc1 | -6.55% (inactive) | 
COc1ccc(S(=O)(=O)N(C)C[C@@H]2Oc3c(NC(=O)Nc4cccc5ccccc45)cccc3C(=O)N([C@@H](C)CO)C[C@H]2C)cc1OC | 2.18% (inactive) | 
Cc1ccc(S(=O)(=O)N(C)C[C@@H]2Oc3c(NC(=O)Nc4ccccc4)cccc3C(=O)N([C@@H](C)CO)C[C@H]2C)cc1 | -12.1% (inactive) | 
C[C@@H]1CN([C@@H](C)CO)C(=O)c2cccc(NC(=O)Nc3ccccc3)c2O[C@H]1CN(C)S(=O)(=O)c1ccc(F)cc1 | -5.13% (inactive) | 
COc1ccc(S(=O)(=O)N(C)C[C@@H]2Oc3c(NC(=O)Nc4c(C)noc4C)cccc3C(=O)N([C@@H](C)CO)C[C@H]2C)cc1 | -3.17% (inactive) | 
COc1ccc(S(=O)(=O)N(C)C[C@@H]2Oc3c(NC(=O)Nc4ccccc4)cccc3C(=O)N([C@@H](C)CO)C[C@H]2C)cc1 | -14.9% (inactive) | 
C[C@@H]1CN([C@@H](C)CO)C(=O)c2cccc(NC(=O)Nc3cccc4ccccc34)c2O[C@H]1CN(C)S(=O)(=O)c1ccc2c(c1)oc(=O)n2C | 4.7% (inactive) | 
C[C@@H]1CN([C@H](C)CO)C(=O)c2cccc(NC(=O)Nc3ccccc3)c2O[C@H]1CN(C)S(=O)(=O)c1ccc(F)cc1 | -13.8% (inactive) | 
C[C@@H]1CN([C@@H](C)CO)C(=O)c2cccc(NC(=O)Nc3cccc4ccccc34)c2O[C@H]1CN(C)C(=O)Nc1ccccc1 |  | activity change, negative = inhibition ([1]; at 12 µM (top of the series)): 11.5% (inactive)
COc1ccc(S(=O)(=O)N(C)C[C@@H]2Oc3c(NC(=O)c4cnccn4)cccc3C(=O)N([C@@H](C)CO)C[C@H]2C)cc1 | 5.1% (inactive) | 
COc1ccc(S(=O)(=O)N(C)C[C@@H]2Oc3c(NS(=O)(=O)c4ccc(C)cc4)cccc3C(=O)N([C@@H](C)CO)C[C@H]2C)cc1 |  | activity change, negative = inhibition ([1]; at 23.5 µM (top of the series)): -10.1% (inactive)
C[C@@H]1CN([C@@H](C)CO)C(=O)c2cccc(NC(=O)Nc3ccccc3)c2O[C@H]1CN(C)S(=O)(=O)c1ccc(Cl)cc1 | -5.63% (inactive) | 
Cc1ccc(S(=O)(=O)N(C)C[C@@H]2Oc3c(NC(=O)Nc4ccccc4)cccc3C(=O)N([C@H](C)CO)C[C@H]2C)cc1 | -21% (inactive) | 
COc1ccc(S(=O)(=O)N(C)C[C@@H]2Oc3c(NC(=O)c4ccc(-c5nccs5)cc4)cccc3C(=O)N([C@@H](C)CO)C[C@H]2C)cc1 | -0.0778% (inactive) | 
COc1ccc(S(=O)(=O)N(C)C[C@H]2Oc3c(NC(=O)Nc4cccc5ccccc45)cccc3C(=O)N([C@@H](C)CO)C[C@@H]2C)cc1 | -8.36% (inactive) | 
C[C@@H]1CN([C@@H](C)CO)C(=O)c2cccc(NC(=O)Nc3cccc4ccccc34)c2O[C@H]1CN(C)S(=O)(=O)c1cn(C)cn1 | -2.87% (inactive) | 
COc1ccc(S(=O)(=O)N(C)C[C@@H]2Oc3c(cccc3N(C)C)C(=O)N([C@@H](C)CO)C[C@H]2C)cc1 |  | activity change, negative = inhibition ([1]; at 23.5 µM (top of the series)): -2.44% (inactive)
COc1ccc(S(=O)(=O)N(C)C[C@H]2Oc3c(NC(=O)Nc4cccc5ccccc45)cccc3C(=O)N([C@H](C)CO)C[C@H]2C)cc1 | 0.786% (inactive) | 
C[C@@H]1CN([C@H](C)CO)C(=O)c2cccc(NC(=O)Nc3ccc(F)cc3)c2O[C@H]1CN(C)S(=O)(=O)c1ccc(Cl)cc1 |  | activity change, negative = inhibition ([1]; at 12 µM (top of the series)): 1.53% (inactive)
COc1ccc(S(=O)(=O)N(C)C[C@@H]2Oc3c(NC(=O)Nc4cccc5ccccc45)cccc3C(=O)N([C@@H](C)CO)C[C@@H]2C)cc1 | -6.51% (inactive) | 
COc1ccc(S(=O)(=O)N(C)C[C@@H]2Oc3c(NC(=O)Nc4ccc5c(c4)OCO5)cccc3C(=O)N([C@@H](C)CO)C[C@H]2C)cc1 | -14.3% (inactive) | 
COc1ccc(S(=O)(=O)N(C)C[C@@H]2Oc3c(NC(=O)Nc4cccc5ccccc45)cccc3C(=O)N([C@H](C)CO)C[C@@H]2C)cc1 | -1.65% (inactive) | 
COc1ccc(S(=O)(=O)N(C)C[C@@H]2Oc3c(NS(=O)(=O)c4ccccc4)cccc3C(=O)N([C@@H](C)CO)C[C@H]2C)cc1 | 0.0255% (inactive) | 

SMILES | activity change, negative = inhibition ([1]; at 26 µM (top of the series)) | other results
C[C@@H]1CN([C@@H](C)CO)C(=O)c2cccc(NC(=O)Nc3cccc4ccccc34)c2O[C@H]1CN(C)S(=O)(=O)c1ccc2ncsc2c1 | -14.4% (inactive) | 
COc1ccc(S(=O)(=O)N(C)C[C@@H]2Oc3c(NC(=O)Nc4ccc(F)cc4)cccc3C(=O)N([C@H](C)CO)C[C@H]2C)cc1 | -19% (inactive) | 
COc1ccc(S(=O)(=O)N(C)C[C@@H]2Oc3c(NC(=O)c4cc(C)nn4C)cccc3C(=O)N([C@@H](C)CO)C[C@H]2C)cc1 | -1.39% (inactive) | 
COc1ccc(S(=O)(=O)N(C)C[C@@H]2Oc3c(NC(=O)Nc4cccc5ccccc45)cccc3C(=O)N(C(C)C)C[C@H]2C)cc1 | 12.7% (inactive) | 
COc1ccc(S(=O)(=O)N(C)C[C@@H]2Oc3c(NS(=O)(=O)c4cn(C)cn4)cccc3C(=O)N([C@@H](C)CO)C[C@H]2C)cc1 | 4.39% (inactive) | 
C[C@H]1CN([C@@H](C)CO)C(=O)c2cccc(NC(=O)NC3CCCCC3)c2O[C@@H]1CN(C)S(C)(=O)=O | -3.58% (inactive) | 
COc1ccc(S(=O)(=O)N(C)C[C@H]2Oc3c(NC(=O)Nc4cccc5ccccc45)cccc3C(=O)N([C@H](C)CO)C[C@@H]2C)cc1 | -26.2% (inactive) | 
COc1ccc(S(=O)(=O)N(C)C[C@@H]2Oc3c(NS(=O)(=O)c4ccc(F)cc4)cccc3C(=O)N([C@@H](C)CO)C[C@H]2C)cc1 | -1.11% (inactive) | 
COc1ccc(S(=O)(=O)N(C)C[C@@H]2Oc3c(NC(=O)C4CCOCC4)cccc3C(=O)N([C@@H](C)CO)C[C@H]2C)cc1 |  | activity change, negative = inhibition ([1]; at 23.5 µM (top of the series)): 3.17% (inactive)
COc1ccc(S(=O)(=O)N(C)C[C@@H]2Oc3c(NC(=O)Nc4ccc(C(F)(F)F)cc4)cccc3C(=O)N([C@@H](C)CO)C[C@H]2C)cc1 | -12% (inactive) | 
COc1ccc(S(=O)(=O)N(C)C[C@@H]2Oc3c(NC(=O)Nc4ccccc4)cccc3C(=O)N([C@H](C)CO)C[C@H]2C)cc1 |  | AC50 [2]: > 26 µM (inactive)
C[C@@H]1CN([C@@H](C)CO)C(=O)c2cccc(NC(=O)Nc3ccc(F)cc3)c2O[C@H]1CN(C)S(=O)(=O)c1ccc(F)cc1 | -1.84% (inactive) | 
COc1ccc(S(=O)(=O)N(C)C[C@@H]2Oc3c(NC(=O)Nc4ccc(F)cc4)cccc3C(=O)N([C@@H](C)CO)C[C@H]2C)cc1 |  | activity change, negative = inhibition ([1]; at 23.5 µM (top of the series)): -9.52% (inactive)
COc1ccc(S(=O)(=O)N(C)C[C@@H]2Oc3c(NC(=O)C4CCCCC4)cccc3C(=O)N([C@@H](C)CO)C[C@H]2C)cc1 | 1.58% (inactive) | 
Cc1ccc(S(=O)(=O)N(C)C[C@@H]2Oc3c(NC(=O)Nc4ccc(F)cc4)cccc3C(=O)N([C@H](C)CO)C[C@H]2C)cc1 |  | activity change, negative = inhibition ([1]; at 12 µM (top of the series)): -0.835% (inactive)
COc1ccc(S(=O)(=O)N(C)C[C@@H]2Oc3c(NC(=O)C4CC4)cccc3C(=O)N([C@@H](C)CO)C[C@H]2C)cc1 |  | activity change, negative = inhibition ([1]; at 23.5 µM (top of the series)): 1.94% (inactive)
COc1ccc(S(=O)(=O)N(C)C[C@@H]2Oc3c(NC(=O)NC(C)C)cccc3C(=O)N([C@@H](C)CO)C[C@H]2C)cc1 | 6.79% (inactive) | 
COc1ccc(S(=O)(=O)N(C)C[C@@H]2Oc3c(NC(=O)c4ccncc4)cccc3C(=O)N([C@@H](C)CO)C[C@H]2C)cc1 | 10% (inactive) | 
COc1ccc(S(=O)(=O)N(C)C[C@@H]2Oc3c(NS(=O)(=O)c4ccc(Cl)cc4)cccc3C(=O)N([C@@H](C)CO)C[C@H]2C)cc1 | 4.24% (inactive) | 
C[C@@H]1CN([C@@H](C)CO)C(=O)c2cccc(NC(=O)Nc3cccc4ccccc34)c2O[C@H]1CN(C)S(=O)(=O)c1ccc2c(n1)N(C)CCO2 |  | activity change, negative = inhibition ([1]; at 12 µM (top of the series)): 1.75% (inactive)
C[C@@H]1CN([C@@H](C)CO)C(=O)c2cccc(NC(=O)Nc3cccc4ccccc34)c2O[C@H]1CN(C)S(=O)(=O)c1ccc2c(c1)OCCCO2 | -19.2% (inactive) | 
COc1ccc(NC(=O)Nc2cccc3c2O[C@@H](CN(C)S(=O)(=O)c2ccc(OC)cc2)[C@H](C)CN([C@@H](C)CO)C3=O)cc1 | -7.77% (inactive) | 
C[C@@H]1CN([C@@H](C)CO)C(=O)c2cccc(NC(=O)Nc3cccc4ccccc34)c2O[C@H]1CN(C)S(=O)(=O)c1ccc2c(c1)OCCO2 |  | AC50 [2]: > 26 µM (inactive)
C[C@@H]1CN([C@@H](C)CO)C(=O)c2cccc(NC(=O)Nc3cccc4ccccc34)c2O[C@H]1CN(C)S(C)(=O)=O | 0.629% (inactive) | 
